The source of these data is publication PMC3487892, “The Pentameric Channel of COMPcc in Complex with Different Fatty Acids” (PLoS ONE, 2012).

Changes are numbered by the printed parent chain.

The test system of experiment [1] is COMPcc. More on the design: method as in PMID 9736606. The settings on record: ligand bound in the channel; ref [9]; cited from earlier work.
Experiment [2] concerns the target T1, COMPcc (Rattus norvegicus, UniProt P35444).
T1 sequence (P35444 27-72): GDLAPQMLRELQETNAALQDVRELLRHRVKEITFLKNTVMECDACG
The experiment in a line: Displacement of CPA from the CPA-COMPcc complex by fatty acids (fluorescence). The settings on record: for Kd: calculated from [FA]1/2 of CPA displacement; for Kd / IC50: 1× PBS pH 7.4, 25°C, triplicate; for Interaction Free Energy: from Kd of CPA displacement; for IC50: read-out: [FA]1/2, fatty acid concentration that halves the CPA fluorescence, COMPcc ~0.1 µM, CPA 0.4 µM. Type of experiment: binding.
Method: Steady-state fluorescence spectra were measured on a Fluorolog-3 Horiba Jobin Yvon spectrofluorometer (Edison, NJ). The sample was held in a 10×10 mm quartz cuvette equipped with a continuous stirrer. The data were analyzed with Sigmaplot (Point Richmond, CA) software. The reaction was thermostatically controlled at 25°C by a Jeio-Tech refrigerating bath circulator (Des Plaines, IL). All fluorescence data were collected in 1× PBS buffer, pH 7.4. From the fluorescence enhancement profile of CPA, the fraction of ligand bound protein (f) can be calculated using: [drawing 1] (1) where F0 is the fluorescence of protein sample when no CPA has been added, F is the protein fluorescence at any given CPA concentration and F420 is the protein fluorescence in the presence of 3 µM of CPA. In the case of one ligand binding site, f follows a hyperbolic dependence upon ligand concentration given by: [drawing 2] (2) where B is a constant, Kd is the dissociation constant and [L]free is the concentration of free ligand (in this case CPA).
The probe CPA can also be used to characterize the binding of other fatty acids to COMPcc. The addition of fatty acids (FA) to the CPA-COMPcc complex will displace CPA leading to a decrease in fluorescence. […] In the case where there is no FA added the concentrations are [COMPcc] = [COMPcc]0 and [CPA]≈[CPA]0 = 0.4 µM. In this case the concentration of the CPA-COMPcc complex will be equal to: [drawing 5] (5) At [drawing 6] ,the concentration of the COMPcc-CPA complex is equal to one half the initial: [drawing 7] (6) Writing a mass balance for COMPcc we obtain: [drawing 8] (7) When [drawing 9] : [drawing 10] (8) The dissociation constant [drawing 11] can be calculated using the value of [FA]1/2 (the amount of fatty acid that reduces the CPA fluorescence to half its original value.

Experiment [3] concerns the target T2, COMPcc (Rattus norvegicus, UniProt P35444, G27M/H53Q/R54Q).
T2 construct: The coiled-coil domain of rat COMPcc comprising residues 27–72 was prepared as described previously; made in house; host or cells: E. coli
T2 sequence (P35444 27-72 G27M/H53Q/R54Q): T1 sequence (P35444 27-72) with G1M, H27Q, R28Q
The experiment in a line: Fluorescence enhancement of cis-parinaric acid (CPA) on binding to COMPcc. As for the experimental part: The coiled-coil domain of rat COMPcc comprising residues 27–72 was prepared as described previously. Purified COMPcc was dialyzed against PBS pH 7.4 and concentrated to 10 mg/mL using an 10 kDa Amicon membrane (Millipore).
Steady-state fluorescence spectra were measured on a Fluorolog-3 Horiba Jobin Yvon spectrofluorometer (Edison, NJ). The sample was held in a 10×10 mm quartz cuvette equipped with a continuous stirrer. The data were analyzed with Sigmaplot (Point Richmond, CA) software. The reaction was thermostatically controlled at 25°C by a Jeio-Tech refrigerating bath circulator (Des Plaines, IL). All fluorescence data were collected in 1× PBS buffer, pH 7.4. From the fluorescence enhancement profile of CPA, the fraction of ligand bound protein (f) can be calculated using: [drawing 1] (1) where F0 is the fluorescence of protein sample when no CPA has been added, F is the protein fluorescence at any given CPA concentration and F420 is the protein fluorescence in the presence of 3 µM of CPA. In the case of one ligand binding site, f follows a hyperbolic dependence upon ligand concentration given by: [drawing 2] […] Therefore, the binding of CPA to COMPcc is consistent with hyperbolic one site binding and the experimentally determined binding constant was 0.7±0.1 µM.

In experiment [4] the test system is COMPcc. As to conditions: wild type COMPcc; ref [9], [27]; cited from earlier work.
The next experiment relates to Q54I. The settings on record: Q54I mutant; ref [9], [27]; cited from earlier work.

In the case of `CCCCCCCC/C=C/CCCCCCCC(=O)O` [18:1 trans-9 elaidic acid], in the experiment with COMPcc [1], the “increase of midpoint transition temperature (Tm) of unfolding” value (“increase … of unfolding” for short) is 10 °C.
For `CCCCCCCCCCCCCC(=O)O` [C14:0 [Myristic acid], Myristic acid], at COMPcc [2], the dissociation constant (Kd) is 800 ± 100 nM, the “Interaction Free Energy” value was -8.31 ± 0.07 kcal/mol and the IC50 came to 320 ± 50 nM.
Take `CCCCCCCC/C=C\CCCCCCCC(=O)O` [C18:1 [Oleic acid], Oleic acid]: at COMPcc [2], the Kd is 900 ± 100 nM, the “Interaction Free Energy” value is -8.24 ± 0.06 kcal/mol and the IC50 worked out at 390 ± 50 nM.
Regarding `CCCCCCCCCCCCCCCCCCCC(=O)O` [C20:0 [Arachidic acid], Arachidic acid], at COMPcc [2], the equilibrium dissociation constant (Kd) was 700 ± 100 nM, the “Interaction Free Energy” value was -8.42 ± 0.08 kcal/mol and the IC50 stood at 280 ± 40 nM.
Take `c1ccccc1` [benzene]: in the experiment on COMPcc [1], the “increase … of unfolding” value is 2 °C.
Consider `CC\C=C/C=C/C=C/C=C\CCCCCCCC(=O)O` [cis-Parinaric acid], for which the “Interaction Free Energy” value on COMPcc [3] (from Kd of direct CPA binding) was -8.42 ± 0.08 kcal/mol. On COMPcc [3] (hyperbolic one-site binding, excitation 320 nm, emission 420 nm, 1× PBS pH 7.4, 25°C), the dissociation constant Kd was 700 ± 100 nM.
`C1CCCCC1` [cyclohexane]: the “increase … of unfolding” value in the experiment with COMPcc [1] is 2 °C.
For the molecule `CC1=C(/C=C/C(C)=C/C=C/C(C)=C/CO)C(C)(C)CCC1` [vitamin A], in the experiment with COMPcc [4], the “Interaction Free Energy” value is -8.4 kcal/mol and the Kd is 600 nM. In the experiment on Q54I, the “Interaction Free Energy” value was -8.3 kcal/mol and the Kd is 800 nM.
For `C=C1CC[C@H](O)C/C1=C/C=C1\CCC[C@]2(C)[C@@H]([C@H](C)CCCC(C)C)CC[C@@H]12` [vitamin D3], in the experiment on COMPcc [1], the “increase … of unfolding” value was 8 °C.
